US11752162B2, “Compounds and compositions for treating solid tumors by intratumoral administration” (Novartis AG, priority 2017, dated 2023)

What was measured:
human TLR7 = target: T1, human TLR7 (Homo sapiens, UniProt Q9NYK1); experiment: TLR7 reporter gene assay (NF-kB-driven luciferase) in HEK293 cells
T1 sequence (Q9NYK1 27-1049): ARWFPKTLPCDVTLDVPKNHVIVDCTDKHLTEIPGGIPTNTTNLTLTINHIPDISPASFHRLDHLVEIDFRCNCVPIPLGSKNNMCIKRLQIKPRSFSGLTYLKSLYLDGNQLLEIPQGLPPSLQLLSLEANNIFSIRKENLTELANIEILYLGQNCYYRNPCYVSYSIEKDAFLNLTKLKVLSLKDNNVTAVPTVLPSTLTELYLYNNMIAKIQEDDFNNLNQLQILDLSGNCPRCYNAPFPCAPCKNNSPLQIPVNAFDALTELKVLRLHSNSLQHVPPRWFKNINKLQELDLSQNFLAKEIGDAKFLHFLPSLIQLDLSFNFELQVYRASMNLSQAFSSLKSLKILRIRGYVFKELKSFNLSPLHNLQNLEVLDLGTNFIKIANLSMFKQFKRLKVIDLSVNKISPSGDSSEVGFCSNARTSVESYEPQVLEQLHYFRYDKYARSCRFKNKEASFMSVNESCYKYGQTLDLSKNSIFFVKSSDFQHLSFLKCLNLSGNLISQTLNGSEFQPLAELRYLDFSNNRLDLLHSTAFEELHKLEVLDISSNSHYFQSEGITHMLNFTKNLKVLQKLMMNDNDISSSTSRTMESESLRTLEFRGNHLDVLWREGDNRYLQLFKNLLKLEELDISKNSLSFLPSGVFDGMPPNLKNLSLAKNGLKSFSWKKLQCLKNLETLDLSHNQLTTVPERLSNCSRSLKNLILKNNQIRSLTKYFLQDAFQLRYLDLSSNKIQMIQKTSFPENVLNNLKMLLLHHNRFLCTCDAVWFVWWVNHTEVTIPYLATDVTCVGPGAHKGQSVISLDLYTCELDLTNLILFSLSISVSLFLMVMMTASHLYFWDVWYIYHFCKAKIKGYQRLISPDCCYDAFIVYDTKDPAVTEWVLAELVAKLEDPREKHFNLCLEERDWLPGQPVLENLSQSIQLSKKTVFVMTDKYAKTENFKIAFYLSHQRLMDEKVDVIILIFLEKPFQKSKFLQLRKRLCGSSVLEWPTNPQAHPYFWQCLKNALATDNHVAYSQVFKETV

[1] = Mouse plasma PK, MC38 syngeneic tumor model, one week study; format: in vivo; settings: female, C57BL/6, mouse, 100 ug, 100 μg Compound 15, single i.t. injection, MC38 tumor bearing mice
Experimental: A MC38 syngeneic mouse tumor model was used to investigate the systemic exposure of Compound 15 following: • a) a single intra-tumoral (i.t.) injection of 100 μg (˜4 mg/kg) of free form Compound 15 in 20 mM Tris buffer pH 7.4, • b) a single intra-tumoral (i.t.) injection of Compound 15 adsorbed to Alhydrogel® suspension at a 1:1.5 ratio (w/w) of Compound 15 to Alhydrogel®)-Suspension A described below and • c) a single subcutaneous (s.c.) injection of Compound 15 adsorbed to Alhydrogel® suspension at a 1:1.5 ratio (w/w) of Compound 15 to Alhydrogel®-Suspension A described below.
For each mouse, 0.25×10^6 cells were implanted with subcutaneously injection into right flank using a 28½ g needle (1004 injection volume). Female C57BL/6 mice bearing the MC38 tumors were randomized into separate groups (n=3-24 mice per group) 10 days post tumor cell implantation with an average tumor volume range of 95.05-194.36 mm^3.
Approximately 10 days after MC38 tumor implant, tumor bearing mice received a single dose of vehicle, 100 μg of free Compound 15 solution (2 mg/mL) or Compound 15 adsorbed to Alhydrogel (1:1.5 w/w; 97% bound) by direct intra-tumoral (i.t.) injection or subcutaneous (s.c.) injection. The dose volume was 50 μL per animal. Plasma samples were taken up to 7 days post dose at time points indicated in Table 11 (n=3 animal per time point).
Plasma concentrations of Compound 15 were quantified using a Liquid Chromatography/Mass Spectrometry (LC/MS/MS) assay. […] To 20 μL of each plasma sample or appropriately diluted plasma sample, 25 μL of internal standard solution was added, then mixed with 150 μL of extraction solvent (methanol/acetonitrile, 80/20 by volume) to precipitate plasma proteins. The samples were vortexed for 5 minutes then centrifuged with an Eppendorf Centrifuge 5810R (Eppendorf, Hamburg, Germany) at a setting of 4,000 rpm for 10 minutes at 4° C. Aliquot of supernatant (50 μL) was transferred to a clean 96-well plate and mixed with 100 μL of Milli-Q water. The mixed samples were injected (25 μL) onto a Waters XBridge C4 analytical column (2.1×50 mm, 3.5 μm), and mobile phases consisted of 0.1% formic acid in water (solvent A) and 0.1% formic acid in acetonitrile (solvent B). […]
The HPLC system, consisting of Agilent 1200 series binary pump (Agilent Technologies Inc.), Agilent 1200 series micro vacuum degasser (Agilent Technologies Inc.), CTC PAL-HTC autosampler (LEAP Technologies, Carborro, N.C., USA) was interfaced to a AB Sciex API 4000 QTrap mass spectrometer (AB Sciex LLC., Framingham, Mass., USA). […] The lower limit of quantitation (LLOQ) in plasma was 0.25 ng/mL. […]

IP-10 = experiment: Plasma IP-10 profiles in Wistar rats after s.c. injection; format: in vivo, rat; settings: male Wistar rats
[2] = Wistar rat subcutaneous PK, fixed aluminum hydroxide 5 mg/mL (Example 10); format: in vivo
Experimental: The pharmacokinetic properties of Compound 15 were examined in naïve male Wistar rats following: • a) a single 200 μL subcutaneous (s.c.) injection of 600 μg of free form Compound 15 in 100 mM Tris buffer pH 7.4; • b) a single 200 μL subcutaneous (s.c.) injection of 50 μg of Compound 15 adsorbed to aluminum hydroxide at a 1:20 ratio (w/w) of Compound 15 to aluminum hydroxide-Suspension G described below; • and • c) a single 200 μL subcutaneous (s.c.) injection of 600 μg of Compound 15 adsorbed to aluminum hydroxide at a 1:1.7 ratio (w/w) of Compound 15 to aluminum hydroxide-Suspension F described below.
The systemic concentration of Compound 15 was evaluated following a single 200 μL subcutaneous injection of two different dose levels of Compound 15 adsorbed to aluminum hydroxide, where the aluminum hydroxide was at a fixed dose concentration of 5 mg/mL.
In this study, two groups male Wistar rats (n=3 per group) were injected subcutaneously (s.c.) with either 50 μg or 600 μg of Compound 15 absorbed to aluminum hydroxide. An injection volume of 200 μL of Suspension G and Suspension F was used to obtain 50 and 600 μg of Compound 15 absorbed to aluminum hydroxide, respectively. The injection volume of 200 μL per rat was not normalized to body weights of the rats. As described above the Compound 15/aluminum hydroxide ratio for Suspension F was 1:1.7 w/w, while for Suspension G it was 1:20 w/w.
Blood samples (˜100 μL each) were taken serially via saphenous bleed from each rat until 168 h post dose (see Table 9 for sampling schedule). Blood samples were centrifuged to separate plasma and the plasma samples were frozen at −20° C. prior to analysis using LC/MS/MS (as described in Example 5) to obtain the systemic concentrations of Compound 15.

[3] = Extent of Compound 15 binding to Alhydrogel (% bound) in the suspension; format: physicochemical; settings: for % bound (Compound 15 adsorbed to aluminum hydroxide): 100 mM Tris buffer (pH 7.4)
Experimental: In the preparation of the Compound 15/Alhydrogel® suspension used in the Examples herein, the stock suspension of Alhydrogel® was filtered by gravity filtration through a 100 μm cell strainer before mixing with stock solution comprising Compound 15. The resulting mixture/suspension was stirred for 5 minutes to allow Compound 15 to adsorb/bind to the aluminum of Alhydrogel®.
To determine the extent of Compound 15 binding to Alhydrogel® (i.e. % bound) in the Compound 15/Alhydrogel® suspension used in the Examples herein, aliquots of the suspension were centrifuged to pellet the bound Compound 15/Alhydrogel® (e.g. 21,000×g for 10 min), and the amount of free Compound 15 in the supernatant was analyzed by HPLC/UV or LC/MS/MS.

[4] = Binding efficiency of Compound 15 to aluminum-containing particles (Alhydrogel) in Tris buffer; format: physicochemical
[5] = rat, sc, 600 ug, 600 μg Compound 15 s.c., male Wistar rats, plasma, Table 15 (free compound data from Example 9)
[6] = Compound 15 0.25 mg/mL, aluminum 0.625 mg/mL, ratio 2.5:1
[7] = Compound 15 0.25 mg/mL, aluminum 5 mg/mL, ratio 20:1
[8] = Compound 15 1 mg/mL, aluminum 2.5 mg/mL, ratio 2.5:1
[9] = Compound 15 2 mg/mL, aluminum 0.1 mg/mL, ratio 0.05:1, 20 mM Tris pH 7.4
[10] = Compound 15 2 mg/mL, aluminum 2 mg/mL, ratio 1:1, 20 mM Tris pH 7.4
[11] = Compound 15 2 mg/mL, aluminum 3 mg/mL, ratio 1.5:1, 20 mM Tris pH 7.4
[12] = Compound 15 3 mg/mL, aluminum 5 mg/mL, ratio 1.7:1
[13] = Compound 15 3 mg/mL, aluminum 7.5 mg/mL, ratio 2.5:1

Cc1cc(OCCOCCC(F)(F)P(=O)(O)O)ccc1CCc1cnc2c(N)nc3cc(CCC(=O)O)ccc3c2c1 [Compound 15, 3-(5-amino-2-(4-(2-(3,3-difluoro-3-phosphonopropoxy)ethoxy)-2-methylphenethyl)benzo[f][1,7]naphthyridin-8-yl)propanoic acid]
EC50 (human TLR7): 96 nM
AUC(0-inf) [1]: 6220 ng·h/mL
Cmax [1]: 10600 ng/mL
Tmax [1]: 4.98 min
half-life ([1]; other: intra-tumoral (i.t.) injection): 2.65 h
peak plasma IP-10 levels compared with 600 μg Compound 15/aluminum hydroxide (IP-10; 600 μg s.c.): higher peak IP-10 levels with a fast rate of decline
time of maximum plasma IP-10 levels post s.c. injection (IP-10; 50 and 600 μg adsorbed, 600 μg free Compound 15): around 3 h
retention of Compound 15 at the local injection site ([2]; adsorbed onto aluminum hydroxide, following subcutaneous injection, rats): up to 1 week
AUC(0-inf) [2, 5]: 2560 ng·h/mL
Cmax [2, 5]: 3660 ng/mL
Tmax [2, 5]: 0.25 h
half-life [2, 5]: 2.1 h
% bound (Compound 15 adsorbed to aluminum hydroxide) ([3]; 50 μg dose formulation, 1:2.5 w/w ratio): 91%
% bound (Compound 15 adsorbed to aluminum hydroxide) ([3]; 200 μg dose formulation, 1:2.5 w/w ratio): 94%
% bound (Compound 15 adsorbed to aluminum hydroxide) ([3]; 600 μg dose formulation, 1:2.5 w/w ratio): 97%
% bound (Compound 15 adsorbed to aluminum hydroxide) ([3]; 50 kg/50 μg (so in the source) dose formulation, 1:20 w/w ratio): 98%
% bound (Compound 15 adsorbed to aluminum hydroxide) ([3]; 600 kg (so in the source) dose formulation, 1:1.7 w/w ratio): 98%
% bound (Compound 15/aluminum hydroxide) ([3]; fixed ratio of 1:1.5 w/w, A20 study formulation): 97%
Compound 15 % Bound [4, 6]: 90.7%
Compound 15 % Free [4, 6]: 9.3%
Compound 15 % Bound [4, 7]: 97.6%
Compound 15 % Free [4, 7]: 1.4%
Compound 15 % Bound [4, 8]: 93.5%
Compound 15 % Free [4, 8]: 6.5%
Compound 15 % Bound [4, 9]: 9.6%
Compound 15 % Free [4, 9]: 90.4%
Compound 15 % Free ([4]; Compound 15 2 mg/mL, aluminum 0.5 mg/mL, ratio 0.25:1, 20 mM Tris pH 7.4): 74.3%
Compound 15 % Bound ([4]; Compound 15 2 mg/mL, aluminum 1 mg/mL, ratio 0.5:1, 20 mM Tris pH 7.4): 43.5%
Compound 15 % Bound [4, 10]: 80.8%
Compound 15 % Free [4, 10]: 19.2%
Compound 15 % Bound [4, 11]: 97.6%
Compound 15 % Free [4, 11]: 2.4%
Compound 15 % Bound [4, 12]: 99.6%
Compound 15 % Free [4, 12]: 0.4%
Compound 15 % Bound [4, 13]: 97.1%
Compound 15 % Free [4, 13]: 2.9%
Compound 15 % Bound ([4]; aluminum hydroxide:Compound 15 ratio (w/w) 1.5:1, Tris buffer pH 7): 98.5%
Compound 15 % Bound ([4]; aluminum hydroxide:Compound 15 ratio (w/w) 1.5:1, Tris buffer pH 7.5): 85.9%
Compound 15 % Bound ([4]; aluminum hydroxide:Compound 15 ratio (w/w) 2:1, Tris buffer pH 7): 99.3%
Compound 15 % Bound ([4]; aluminum hydroxide:Compound 15 ratio (w/w) 2:1, Tris buffer pH 8): 99.1%
% Free Compound 15 ([4]; dosing formulation of Example 9, 100 mM Tris pH 7.4): 100%
% Free Compound 15 ([4]; dosing formulation of Example 10, 100 mM Tris pH 7.4): 100%
